These results are taken from patent publication US20200377505A1, “BENZIMIDAZOLES AND AZA-BENZIMIDAZOLES, AND METHODS OF USE THEREOF” (Goldfinch Bio., Inc., priority 2017, published 2020).

In one experiment the target is T1, human TRPC5 (Homo sapiens, UniProt Q9UL62).
T1 construct: expressed in transfected cells; host or cells: HEK 293
T1 sequence (Q9UL62 1-973): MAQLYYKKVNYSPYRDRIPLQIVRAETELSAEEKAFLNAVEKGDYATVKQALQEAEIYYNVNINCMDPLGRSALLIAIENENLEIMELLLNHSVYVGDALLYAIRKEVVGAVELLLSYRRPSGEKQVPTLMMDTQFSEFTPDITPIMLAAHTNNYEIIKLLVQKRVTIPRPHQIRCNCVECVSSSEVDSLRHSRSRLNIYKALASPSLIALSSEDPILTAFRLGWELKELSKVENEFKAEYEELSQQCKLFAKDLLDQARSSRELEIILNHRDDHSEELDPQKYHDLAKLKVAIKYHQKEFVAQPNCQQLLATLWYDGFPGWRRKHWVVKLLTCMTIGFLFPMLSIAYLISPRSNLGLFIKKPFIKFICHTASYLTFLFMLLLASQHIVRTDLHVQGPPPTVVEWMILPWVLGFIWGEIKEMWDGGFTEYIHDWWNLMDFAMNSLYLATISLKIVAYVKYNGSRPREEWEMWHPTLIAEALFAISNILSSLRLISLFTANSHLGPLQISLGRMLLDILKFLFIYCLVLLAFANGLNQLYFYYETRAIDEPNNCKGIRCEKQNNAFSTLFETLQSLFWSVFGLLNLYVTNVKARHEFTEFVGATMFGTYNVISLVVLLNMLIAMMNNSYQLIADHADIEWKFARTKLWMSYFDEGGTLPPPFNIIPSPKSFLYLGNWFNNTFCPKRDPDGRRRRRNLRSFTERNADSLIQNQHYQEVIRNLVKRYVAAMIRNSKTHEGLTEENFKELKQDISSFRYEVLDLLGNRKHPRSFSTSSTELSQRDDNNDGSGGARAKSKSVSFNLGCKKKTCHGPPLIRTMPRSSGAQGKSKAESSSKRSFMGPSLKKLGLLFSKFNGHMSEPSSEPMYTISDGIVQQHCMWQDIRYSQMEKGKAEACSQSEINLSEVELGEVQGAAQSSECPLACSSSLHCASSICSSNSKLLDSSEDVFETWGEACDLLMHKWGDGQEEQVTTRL
The experiment is described as follows: TRPC5 fluorescence-based assay (Ca2+ flux assay in FLIPR format), cells overexpressing TRPC5. It is filed as cell-based. Particulars: 5 μM of test compound, following Carbachol stimulation.

A further experiment has as its target T2, human TRPC6 (Homo sapiens, UniProt Q9Y210).
T2 construct: expressed in transfected cells; host or cells: HEK 293
T2 sequence (Q9Y210 1-931): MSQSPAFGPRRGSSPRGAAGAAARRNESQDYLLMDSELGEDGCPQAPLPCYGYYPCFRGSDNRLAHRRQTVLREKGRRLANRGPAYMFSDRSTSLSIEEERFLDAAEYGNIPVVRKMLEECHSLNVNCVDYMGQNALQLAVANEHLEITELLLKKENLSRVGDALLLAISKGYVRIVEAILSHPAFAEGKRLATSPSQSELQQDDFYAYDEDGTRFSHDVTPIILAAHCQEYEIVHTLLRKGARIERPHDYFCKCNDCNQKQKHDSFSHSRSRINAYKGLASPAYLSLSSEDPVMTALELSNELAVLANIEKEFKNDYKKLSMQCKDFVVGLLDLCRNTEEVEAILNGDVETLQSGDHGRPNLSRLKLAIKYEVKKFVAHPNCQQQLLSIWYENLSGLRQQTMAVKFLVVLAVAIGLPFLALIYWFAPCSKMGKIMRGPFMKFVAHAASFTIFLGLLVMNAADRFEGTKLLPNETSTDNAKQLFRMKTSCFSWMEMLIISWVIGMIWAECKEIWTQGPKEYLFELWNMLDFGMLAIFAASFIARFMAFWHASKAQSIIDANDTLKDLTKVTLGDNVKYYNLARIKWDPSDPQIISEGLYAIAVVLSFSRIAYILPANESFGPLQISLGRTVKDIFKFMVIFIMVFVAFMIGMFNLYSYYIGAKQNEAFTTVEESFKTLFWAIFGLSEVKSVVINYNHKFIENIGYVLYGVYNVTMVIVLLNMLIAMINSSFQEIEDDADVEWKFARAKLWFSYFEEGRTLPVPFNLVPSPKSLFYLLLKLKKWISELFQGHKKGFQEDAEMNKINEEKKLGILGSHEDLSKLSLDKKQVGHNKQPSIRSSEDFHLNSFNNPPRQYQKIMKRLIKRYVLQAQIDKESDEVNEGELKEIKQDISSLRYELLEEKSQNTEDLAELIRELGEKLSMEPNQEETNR
The experiment is described as follows: TRPC6 fluorescence-based assay (Ca2+ flux assay in FLIPR format), cells overexpressing TRPC6. The format is cell-based. Particulars: 5 μM of test compound, following Carbachol stimulation.

Each structure is given as a SMILES string.

As to `c1ccc(Cc2nc3ccccc3n2CCOc2ccccc2)cc1`, the inhibition – broadly, the change of the read-out against control, counted positive when it falls – at 5 µM was determined as 36.7% on human TRPC5 and 17.7% against human TRPC6.

For `Nc1nc2ccccc2n1Cc1ccccc1F`, the inhibition at 5 µM against human TRPC5 amounted to 48.4%; at human TRPC6, 34.8%.

`CCN(CC)CCn1c(NCc2ccc(Cl)cc2)nc2ccccc21`: the inhibition at 5 µM on human TRPC5 turned out to be 62%; against human TRPC6 it was 57.1%.

As for `OCCNc1nc2ccccc2n1CCOc1ccccc1`, the values for the inhibition at 5 µM against human TRPC5 and on human TRPC6 were 40.7% and 8.36%, respectively.

Regarding `Nc1nc2ccccc2n1Cc1ccc(Cl)c(Cl)c1`, the inhibition at 5 µM on human TRPC5 came out at 52.4%; on human TRPC6, 84.3%.

In the case of `CCN(CC)CCn1c(NCc2ccccc2OC)nc2ccccc21`, the inhibition at 5 µM was found to be 63.4% on human TRPC5 and 21.9% at human TRPC6.

As for `CCCCCCn1c(NCc2ccccc2O)nc2ccccc21`, the inhibition at 5 µM on human TRPC5 worked out at 61.3%; against human TRPC6 it was 21.9%.

Consider `CCOc1ccccc1Nc1nc2ccccc2n1C(C)C`, for which the inhibition at 5 µM turned out to be 45.1% on human TRPC5 and 40.7% at human TRPC6.

`c1csc(CNc2nc3ccccc3n2CCN2CCCCC2)c1`: the values for the inhibition at 5 µM against human TRPC5 and against human TRPC6 were 64.4% and 16.5%, respectively.

For `Fc1cccc(Cl)c1Cn1c(-c2ccco2)nc2ccccc21`, the results for the inhibition at 5 µM on human TRPC5 and on human TRPC6 were 47.9% and 61.7%, respectively.

On to `O=C(Cn1c(NCCCO)nc2ccccc21)C12CC3CC(CC(C3)C1)C2`, for which the figures for the inhibition at 5 µM on human TRPC5 and on human TRPC6 were 58.2% and 28.4%, respectively.

Take `CC(C)c1ccc(CNc2nc3ccccc3n2C)cc1`: the inhibition at 5 µM on human TRPC5 was determined as 50%; at human TRPC6 it was 80.6%.

Turning to `Brc1cccc(CNc2nc3ccccc3n2CCN2CCOCC2)c1`, the values for the inhibition at 5 µM on human TRPC5 and against human TRPC6 were 45.8% and 18.5%, respectively.

Turning to `CCN(CC)CCn1c(NCc2ccc(OC)cc2OC)nc2ccccc21`, the inhibition at 5 µM turned out to be 60.9% against human TRPC5 and 43.5% on human TRPC6.

On to `Clc1ccc(Cn2cnc3ccccc32)c(Cl)c1`, for which the inhibition at 5 µM worked out at 63.5% against human TRPC5 and 85.5% against human TRPC6.

In the case of `CCn1c(NCc2cccc(Br)c2)nc2ccccc21`, the inhibition at 5 µM at human TRPC5 came to 39.9%; against human TRPC6, 54.1%.

Regarding `CCn1c(Cc2ccc(OC)c(OC)c2)nc2ccccc21`, the inhibition at 5 µM at human TRPC5 came out at 59%; at human TRPC6 it was 94%.

As to `CCn1c(NCc2cc(C)ccc2O)nc2ccccc21`, the results for the inhibition at 5 µM against human TRPC5 and on human TRPC6 were 51.8% and 3.16%, respectively.

Take `CCCn1c(COc2ccccc2)nc2ccccc21`: the values for the inhibition at 5 µM against human TRPC5 and against human TRPC6 were 30.2% and 22.8%, respectively.

For the compound `CCN(CC)c1ccc(CNc2nc3ccccc3n2CCN2CCCCC2)cc1`, the inhibition at 5 µM at human TRPC5 came out at 61.2%; against human TRPC6 it was 65.7%.

Turning to `CCCn1c(NCc2nc3ccccc3n2C)nc2ccccc21`, the inhibition at 5 µM is 42.8% against human TRPC5 and -6.21% against human TRPC6.

Take `COc1ccccc1Cn1c(C)nc2ccccc21`: the inhibition at 5 µM was found to be 73.4% against human TRPC5 and 89.9% at human TRPC6.

Turning to `Cn1c(CC(O)c2ccccc2)nc2ccccc21` (stereo not shown), the inhibition at 5 µM on human TRPC5 is 42.3%; on human TRPC6, -9.99%.

In the case of `Cc1ccc(Cn2c(C(C)(C)C)nc3ccccc32)cc1`, the inhibition at 5 µM was 39.7% against human TRPC5 and 27.7% against human TRPC6.

With `CCOc1ccccc1CNc1nc2ccccc2n1C`, the inhibition at 5 µM on human TRPC5 turned out to be 43.9%; at human TRPC6, 19.3%.

On to `COc1ccccc1NC(=O)Cn1c(C)nc2ccccc21`, for which the inhibition at 5 µM against human TRPC5 was 72.7%; on human TRPC6, 84.1%.

For `COc1ccc(CCN2CCC(Nc3nc4ccccc4n3CCc3ccc(OC)cc3)CC2)cc1`, the inhibition at 5 µM was 63.3% against human TRPC5 and 68.9% against human TRPC6.

In the case of `c1ccc(Cc2nc3ccccc3n2CCCOc2ccccc2)cc1`, the inhibition at 5 µM turned out to be 85.9% against human TRPC5 and 92.5% against human TRPC6.

Take `Cc1ccc(Cn2c(CN3CCC(CN)C3)nc3ccccc32)cc1` (stereo not shown): the figures for the inhibition at 5 µM on human TRPC5 and against human TRPC6 were 51.8% and 51%, respectively.

Take `COc1ccc(/C=N/c2nc3ccccc3n2Cc2ccc(C)cc2)cc1`: the inhibition at 5 µM against human TRPC5 amounted to 53.4%; against human TRPC6, 41.5%.

Consider `CCCn1c(NCc2ccc(N(CC)CC)cc2)nc2ccccc21`, for which the inhibition at 5 µM against human TRPC5 stood at 64.9%; against human TRPC6, 74.7%.

As for `CCn1c(NCc2ccccc2O)nc2ccccc21`, the values for the inhibition at 5 µM against human TRPC5 and against human TRPC6 were 50% and -8.69%, respectively.
